In ChEMBL document CHEMBL3861963, “Hypocriols A-F, Heterodimeric Botryane Ethers from Hypocrea sp., an Insect-Associated Fungus” (J Nat Prod, 2016):
pIC50: −log10 of the molar value.

What was measured:
Type in all cases: functional, cell-based
[1] = Antiproliferative activity against human HeLa cells measured after 24 hrs by CCK8 assay
[2] = Antiproliferative activity against human HCT116 cells measured after 24 hrs by CCK8 assay; conditions: HCT-116, 24 h
[3] = Antiproliferative activity against human A549 cells measured after 24 hrs by CCK8 assay; conditions: A549, 24 h
[4] = Antiproliferative activity against human MCF7 cells measured after 24 hrs by CCK8 assay; conditions: MCF7, 24 h

SMILES	pIC50 [1]	pIC50 [2]	pIC50 [3]	pIC50 [4]
CC(=O)O[C@H]1C[C@@H](C)[C@@H]2[C@@H](O)[C@H](O[C@H]3OC[C@@]4(C)CC(C)(C)c5ccc(C)c3c54)[C@@]3(C)CC(C)(C)[C@H]1[C@]23O	5.11	4.73	4.60	4.71
CC(=O)O[C@H]1C[C@@H](C)[C@@H]2[C@@H](OCc3c(C)ccc4c3[C@@](C)(CO)CC4(C)C)OC[C@@]3(C)CC(C)(C)[C@H]1[C@]23O	5.34	5.57	4.82	4.63
CC(=O)O[C@H]1C[C@@H](C)[C@@H]2[C@@H](OC3OC[C@@]4(C)CC(C)(C)c5ccc(C)c3c54)[C@H](O)[C@@]3(C)CC(C)(C)[C@H]1[C@]23O (some centres undefined)	5.51			
CO[C@H]1O[C@@H](O[C@H]2[C@H](O)[C@H]3[C@H](C)C[C@H](OC(C)=O)[C@H]4C(C)(C)C[C@@]2(C)[C@@]34O)[C@@]2(C)CC(C)(C)c3ccc(C)c1c32	5.42	4.73	4.33	4.47
CC(=O)O[C@H]1C[C@@H](C)[C@@H]2[C@@H](OC[C@@]3(C)CC(C)(C)c4ccc(C)c(CO)c43)OC[C@@]3(C)CC(C)(C)[C@H]1[C@]23O	4.36	4.64		4.32
CC(=O)O[C@H]1C[C@@H](C)[C@@H]2[C@@H](O)[C@H](O[C@@H]3OC[C@@]4(C)CC(C)(C)c5ccc(C)c3c54)[C@@]3(C)CC(C)(C)[C@H]1[C@]23O	4.93	4.76		4.32
